Counter-ions that a name gives are not always drawn.
Key:
[1] = tested on: normal human hepatocytes; experiment: 60-agent chemical screen, cell viability (Cell-Titer Glo), hepatocytes; type: cell-based; conditions: Hepatocyte, 60-agent screen, 72 hours, a value of 10,000 indicates that the drug did not inhibit viability, read-out: absolute IC50, Hepatocytes;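 note: cells were plated onto pre-diluted drug concentrations in 384-well plates, and viability was read after 72 h as CellTiter-Glo 2.0 luminescence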
Method: (§1) On day 0, cells were trypsinized and plated into a white walled 384-well plate containing pre-diluted known concentrations of various drugs. After 72 hours, an equal volume of Cell-Titer Glo 2.0 (G9243, Promega) was added to each well, incubated at room temperature while rocking in the dark for 15 minutes, followed by luminescence acquisition with a BioTek Synergy HT plate reader (BioTek, Winooski, VT).

[2] = tested on: HepG2; experiment: 60-agent chemical screen, cell viability (Cell-Titer Glo), HepG2; type: cell-based; conditions: Homo sapiens, 60-agent screen, 72 hours, a value of 10,000 indicates that the drug did not inhibit viability, read-out: absolute IC50, HepG2;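 note: luminescence read-out in 384-well plates, with cells plated directly onto drug dilutions of known concentration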
Method: as §1

[3] = tested on: Huh-6; experiment: 60-agent chemical screen, cell viability (Cell-Titer Glo), Huh-6; type: cell-based; conditions: Homo sapiens, 60-agent screen, 72 hours, a value of 10,000 indicates that the drug did not inhibit viability, read-out: absolute IC50, Huh-6
Method: as §1

[4] = tested on: HB-214; experiment: 60-agent chemical screen, cell viability (Cell-Titer Glo), HB-214; type: cell-based; conditions: Homo sapiens; 60-agent screen, 72 hours; a value of 10,000 indicates that the drug did not inhibit viability; read-out: absolute IC50, HB-214;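 note: viability read as luminescence once Cell-Titer Glo 2.0 reagent was added to drug-treated cells in 384-well plates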
Method: as §1

[5] = cited from earlier work
[6] = tested on: hepatoblastoma cell lines HepG2, Huh-6 and HB-214 versus hepatocytes
Method: as §1

Row | Structure (SMILES) | IC50 [2] [µM] | IC50 [3] [µM] | Ratio normal/cancer: average ratio of the IC50 in hepatocytes to the IC50 in hepatoblastoma cell lines [6] | IC50 [1] [µM] | IC50 [4] [µM] | side effects ([5]; irinotecan) | known toxicity ([5]; in vivo)
1 | CCc1c2c(nc3ccc(OC(=O)N4CCC(N5CCCCC5)CC4)cc13)-c1cc3c(c(=O)n1C2)COC(=O)[C@]3(O)CC [irinotecan] | – | – | – | – | – | diarrhea and neutropenia | –
2 | C/C=C(/C)C(=O)O[C@H]1C(C)=C2[C@H]([C@@H]1OC(=O)CCCCCCC)[C@@](C)(OC(C)=O)C[C@H](OC(=O)CCC)[C@@]1(O)[C@H]2OC(=O)[C@@]1(C)O [thapsigargin] | 0.021 | 0.28 | – | 0.519 | 0.16 | – | significant renal toxicity
3 | O=c1ncccn1[C@@H]1O[C@H](CO)[C@@H](O)[C@H]1O [zebularine] | > 10 | > 10 | – | > 10 | > 10 | – | –
4 | C[C@]1(O)C[C@@H](c2nc(-c3ccc4ccc(-c5ccccc5)nc4c3)c3c(N)nccn32)C1 [OSI-906] | > 10 | > 10 | – | 5.9 | 1.8 | – | –
5 | Nc1nc2[nH]cc(CCc3ccc(C(=O)N[C@@H](CCC(=O)O)C(=O)O)cc3)c2c(=O)[nH]1 [pemetrexed] | > 10 | > 10 | – | > 10 | > 10 | – | –
6 | N#CC[C@H](C1CCCC1)n1cc(-c2ncnc3[nH]ccc23)cn1 [ruxolitinib] | > 10 | > 10 | – | > 10 | > 10 | – | –
7 | CCc1cnn2c(NCc3ccc[n+]([O-])c3)cc(N3CCCC[C@H]3CCO)nc12 [dinaciclib] | – | – | – | 0.001 | – | – | –
8 | CO[C@H]1C[C@@H]2CC[C@@H](C)[C@@](O)(O2)C(=O)C(=O)N2CCCC[C@H]2C(=O)O[C@H]([C@H](C)C[C@@H]2CC[C@@H](O)[C@H](OC)C2)CC(=O)[C@H](C)/C=C(\C)[C@@H](O)[C@@H](OC)C(=O)[C@H](C)C[C@H](C)/C=C/C=C/C=C/1C [sirolimus] | > 10 | > 10 | – | > 10 | > 10 | – | –
9 | CN1CCc2c(c3ccccc3n2Cc2ccc(C(=O)NO)cc2)C1 [tubastatin A] | > 10 | > 10 | – | > 10 | > 10 | – | –
10 | Cc1ccc(S(=O)(=O)/C=C/C#N)cc1 [BAY-11-7082] | – | – | 1 | – | – | – | –
11 | CC(C)(C(=O)NCC(F)(F)C(F)(F)F)C(=O)N[C@@H]1C(=O)Nc2ccccc2-c2ccccc21 [RO4929097] | > 10 | > 10 | – | > 10 | > 10 | – | –
12 | Nc1nc(O)c2ncn(COC(CO)CO)c2n1 [ganciclovir] | > 10 | > 10 | – | > 10 | > 10 | – | –
13 | Cc1ccc(Nc2nccc(N(C)c3ccc4c(C)n(C)nc4c3)n2)cc1S(N)(=O)=O [pazopanib] | > 10 | > 10 | – | – | > 10 | – | –
14 | C[C@@H](Oc1ccc2[nH]nc(/C=C/c3cnn(CCO)c3)c2c1)c1c(Cl)cncc1Cl [LY2874455] | > 10 | > 10 | – | 2.17 | > 10 | – | –
15 | CCOC(=O)CCNc1cc(N2CCc3ccccc3CC2)nc(-c2ccccn2)n1 [GSK-J4 HCl] | > 10 | 4.8 | – | > 10 | > 10 | – | –
16 | C=CCn1c(=O)c2cnc(Nc3ccc(N4CCN(C)CC4)cc3)nc2n1-c1cccc(C(C)(C)O)n1 [MK-1775] | > 10 | > 10 | – | > 10 | 1.18 | – | –
17 | CS(=O)(=O)c1cccc(CNc2nc(Nc3ccc4c(c3)CCC(=O)N4)ncc2C(F)(F)F)c1 [PF 573228] | – | – | 1 | – | – | – | –
18 | Cc1cc(-c2ncc(CC(=O)Nc3ccc(-c4cnccn4)cn3)cc2C)ccn1 [LGK974] | > 10 | > 10 | – | 7.72 | > 10 | – | –
19 | C=C[C@@]1(C)CC(=O)[C@]2(O)[C@@]3(C)[C@@H](O)CCC(C)(C)[C@@H]3[C@H](O)[C@H](OC(C)=O)[C@@]2(C)O1 [forskolin] | > 10 | > 10 | – | > 10 | > 10 | – | –
20 | COc1ccc(C[C@@H](C)[C@@H](C)Cc2ccc(OC)c(OC)c2)cc1OC [EM1421] | > 10 | > 10 | – | > 10 | > 10 | – | –
21 | Cc1cc(Nc2cc(N3CCN(C)CC3)nc(Sc3ccc(NC(=O)C4CC4)cc3)n2)[nH]n1 [tozasertib] | > 10 | 3.26 | – | > 10 | 1.48 | – | –
22 | CC(C)n1c(/C=C/C(O)CC(O)CC(=O)O)c(-c2ccc(F)cc2)c2ccccc21 (stereo not drawn) [fluvastatin] | > 10 | 4.44 | – | – | > 10 | – | –
23 | Clc1ccc(N/N=C(\c2ccccc2)c2ccccn2)nc1 [JIB-04] | – | – | 4 | – | – | – | –
24 | CCOc1cc(C(C)(C)C)ccc1C1=N[C@@](C)(c2ccc(Cl)cc2)[C@@](C)(c2ccc(Cl)cc2)N1C(=O)N1CCN(CCCS(C)(=O)=O)CC1 [RO5045337] | > 10 | > 10 | – | > 10 | 4.15 | – | –
25 | CNC(=O)CN1CCC(Oc2cc3c(Nc4cccc(Cl)c4F)ncnc3cc2OC)CC1 [AZD8931] | > 10 | > 10 | – | 1.45 | > 10 | – | –
26 | O=C1NC(=O)C(c2cnc3ccccn23)=C1c1cn2c3c(cc(F)cc13)CN(C(=O)N1CCCCC1)CC2 [LY2090314] | > 10 | > 10 | – | 0.837 | > 10 | – | –
27 | CN[C@@H](C)C(=O)N[C@H](C(=O)N1CCC[C@H]1c1nc(C(=O)c2ccc(F)cc2)cs1)C1CCCCC1 [LCL161] | > 10 | > 10 | – | > 10 | > 10 | – | –
28 | CC1(C)CCC(c2ccc(Cl)cc2)=C(CN2CCN(c3ccc(C(=O)NS(=O)(=O)c4ccc(N[C@H](CCN5CCOCC5)CSc5ccccc5)c(S(=O)(=O)C(F)(F)F)c4)cc3)CC2)C1 [ABT-263] | > 10 | > 10 | – | > 10 | > 10 | – | –

The next lines start with results.

Row | IC50 [2] [µM] | IC50 [3] [µM] | Ratio normal/cancer: average ratio of the IC50 in hepatocytes to the IC50 in hepatoblastoma cell lines [6] | Structure (SMILES) | IC50 [1] [µM] | IC50 [4] [µM] | side effects ([5]; irinotecan) | known toxicity ([5]; in vivo)
29 | > 10 | > 10 | – | Cc1ccc(-c2cc(C(F)(F)F)nn2-c2ccc(S(N)(=O)=O)cc2)cc1 [celecoxib] | > 10 | > 10 | – | –
30 | > 10 | > 10 | – | CC(C)(C)Cn1c(N)nc2ccc(-c3[nH]c(C(C)(C)C)nc3-c3ccc(F)cc3)nc21 [LY2228820] | 0.076 | > 10 | – | –
31 | 6.39 | 1.56 | – | CC(C)N(CCCNC(=O)Nc1ccc(C(C)(C)C)cc1)C[C@H]1O[C@@H](n2cc(Br)c3c(N)ncnc32)[C@H](O)[C@@H]1O [SGC0946] | 0.51 | > 10 | – | –
32 | > 10 | > 10 | – | CCCc1c(OCCCOc2cc(O)c(-c3ccc(F)cc3)cc2CC)cccc1Oc1ccccc1C(=O)O [LY293111] | > 10 | > 10 | – | –
33 | 0.126 | 2.43 | – | CC(C)n1nc(-c2ccc3oc(N)nc3c2)c2c(N)ncnc21 [INK 128] | 0.007 | 0.001 | – | –
34 | 2.9 | 2.81 | – | COc1cc2nc(N3CCCN(C)CC3)nc(NC3CCN(Cc4ccccc4)CC3)c2cc1OC [BIX 01294] | 2.04 | 1.72 | – | –
35 | 5.4 | 5.27 | – | COc1cccc(OCCCN)c1-c1cc(Nc2cnc(C#N)cn2)n[nH]1 [LY2606368] | > 10 | 4.7 | – | –
36 | > 10 | > 10 | – | CN(C)C(=N)N=C(N)N [metformin HCL] | > 10 | > 10 | – | –
37 | > 10 | > 10 | – | CN(C(=O)c1ccc(F)cc1C(F)(F)F)C1CCN(c2nnc(-c3ccnn3C)c3ccccc23)CC1 [LY2940680] | > 10 | > 10 | – | –
38 | 0.392 | > 10 | – | Nc1ccccc1NC(=O)c1ccc(CNC(=O)OCc2cccnc2)cc1 [entinostat] | 0.217 | 1.49 | – | –
39 | 0.124 | 4.47 | – | COCCn1c2c([n+](Cc3cnccn3)c1C)C(=O)c1ccccc1C2=O [YM155] | 0.034 | 0.26 | – | –
40 | 0.478 | > 10 | – | Cn1c(=O)n(-c2ccc(C(C)(C)C#N)cc2)c2c3cc(-c4cnc5ccccc5c4)ccc3ncc21 [BEZ235] | 0.048 | 0.61 | – | –
41 | 5.02 | 2.62 | – | Cc1nc(Nc2ncc(C(=O)Nc3c(C)cccc3Cl)s2)cc(N2CCN(CCO)CC2)n1 [dasatinib] | > 10 | > 10 | – | –
42 | 6.2 | 4.81 | – | O=C(O)c1ccc2c(c1)nc(Nc1cccc(Cl)c1)c1ccncc12 [CX-4945] | > 10 | > 10 | – | –
43 | 1.72 | 4.62 | – | CN1CCC(CNc2ccc3ncc(-c4cccc(OC(F)(F)F)c4)n3n2)CC1 [SGI-1776] | 0.233 | 1.53 | – | –
44 | 2.17 | 4.42 | – | C[C@@H](Oc1cc(-c2cnn(C3CCNCC3)c2)cnc1N)c1c(Cl)ccc(F)c1Cl [crizotinib] | 2.16 | 7.64 | – | –
45 | 0.08 | 1.14 | – | Cc1[nH]c2ccccc2c1CCNCc1ccc(/C=C/C(=O)NO)cc1 [panobinostat] | 0.039 | 0.25 | – | –
46 | 6.07 | > 10 | – | CC(=O)c1c(C)c2cnc(Nc3ccc(N4CCNCC4)cn3)nc2n(C2CCCC2)c1=O [PD 0332991] | > 10 | 1.89 | – | –

From article PMC6849653, “Volasertib preclinical activity in high-risk hepatoblastoma” (Oncotarget, 2019)
